Source: patent publication US20080305544A1, “Method of Producing Nerve Cell” (KYOWA HAKKO KOGYO CO., LTD. TOKYO, JAPAN, priority 2004, published 2008)

Assays:
ES cell EB5 [1] = assay: Nerve cell inducing ratio: colonies with neurite / total colonies, differentiation induction of EB5; type: cell-based; settings: for induction of nerve cells (nerve cell inducing ratio): FIG. 2; for activity to induce differentiation of embryonic stem cells into nerve cells by the combination of heparin and vitamin B12: substance added to 0.01% heparin and 100 nmol/l vitamin B12, conclusion of Example 2
Protocol: In the following Examples, an ES cell EB5 [Nature Genet., 24, 372, (2000)] was used as the embryonic stem cell. The EB5 was inoculated into a dish coated with 0.1% of gelatin and sub-cultured at 37° C. in a CO2 incubator ventilated with 5% of carbon dioxide while keeping its undifferentiated state, using G-MEM (Invitrogen) containing 1% fetal bovine serum (manufactured by JRH Biosciences), 10% Knockout Serum Replacement (manufactured by Invitrogen), 1 mmol/l pyruvic acid (manufactured by Sigma), 0.1 mmol/l nonessential amino acids (manufactured by Invitrogen), 0.1 mmol/12-mercaptoethanol (manufactured by Nacalai Tesque), […] blasticidin (manufactured by Invitrogen) and 2×10^3 U/ml ESGRO (manufactured by Chemicon) (to be referred to as “maintenance medium” hereinafter). When differentiation of EB5 is induced, 2.5×10^3 cells of EB5 were inoculated into a 24 well plate coated with 0.1% of gelatin, a medium prepared by eliminating serum, blasticidin and ESGRO from the maintenance medium (hereinafter referred to as “differentiation induction medium”) was added at 1 ml to respective wells, and the cells were allowed to adhere thereto by incubating at 37° C. for 2 hours. Thereafter, 500 μl of PBS containing various concentration of heparin (manufactured by Sigma) or vitamin B12 (cyanocobalamin, manufactured by Nacalai Tesque) (hereinafter referred to as “test solution 1”) was added thereto and incubated at 37° C. for 14 days without changing the medium. Each test condition was carried out in tandem. In this connection, the concentrations of heparin and vitamin B12 mean their concentrations in the test solution 1. On the 14th day after addition of the test solution 1, colonies having a diameter of 50 μm or more were counted using an optical microscope to calculate the number of total colonies. Also, among the colonies, a colony on which neurite was observed was regarded as a nerve cell colony, and the nerve cell inducing ratio was calculated by the following formula. Nerve cell inducing ratio(%)=the number of nerve cell colonies/the number of total colonies×100 Nerve cell inducing differentiation ratio was examined in the same manner as in Example 1, except that PBS containing 0.01% of heparin and 100 nmol/l of vitamin B12 (hereinafter referred to as “test solution 2”), a test solution 3 containing 0.1 μg/ml of biotin [(+)-biotin, manufactured by Wako Pure Chemical Industries] in the test solution 2, a test solution 4 containing 0.42 μg/ml of K4[Fe(CN)6] (manufactured by Nacalai Tesque) in the test solution 2, a test solution 5 containing 0.081 μg/ml of putrescine (manufactured by Sigma) in the test solution 2, a test solution 6 containing 0.1 μg/ml of biotin, 0.42 μg/ml of K4[Fe(CN)6] and 0.081 μg/ml of putrescine in the test solution 2 and a test solution 7 containing 0.01% of heparin, 0.1 […] of biotin, 0.42 μg/ml of K[Fe(CN)6] and 0.081 μg/ml of putrescine were used instead of the test solution 1 in the above-described Example 1.

ES cell EB5 [2] = assay: Number of total colonies formed from EB5 after 14 days of differentiation induction culture; type: cell-based; settings: vitamin B12 added; heparin 0% vs 0.01% addition condition; 14 days after commencement of culturing; FIG. 1
Protocol: In the following Examples, an ES cell EB5 [Nature Genet., 24, 372, (2000)] was used as the embryonic stem cell.
The EB5 was inoculated into a dish coated with 0.1% of gelatin and sub-cultured at 37° C. in a CO2 incubator ventilated with 5% of carbon dioxide while keeping its undifferentiated state, using G-MEM (Invitrogen) containing 1% fetal bovine serum (manufactured by JRH Biosciences), 10% Knockout Serum Replacement (manufactured by Invitrogen), 1 mmol/l pyruvic acid (manufactured by Sigma), 0.1 mmol/l nonessential amino acids (manufactured by Invitrogen), 0.1 mmol/12-mercaptoethanol (manufactured by Nacalai Tesque), […] blasticidin (manufactured by Invitrogen) and 2×10^3 U/ml ESGRO (manufactured by Chemicon) (to be referred to as “maintenance medium” hereinafter). […]
On the 14th day after addition of the test solution 1, colonies having a diameter of 50 μm or more were counted using an optical microscope to calculate the number of total colonies. Also, among the colonies, a colony on which neurite was observed was regarded as a nerve cell colony, and the nerve cell inducing ratio was calculated by the following formula.

cyanocobalamin [vitamin B12] was tested, and the “induction of nerve cells (nerve cell inducing ratio)” value (ES cell EB5 [1]; heparin 0% addition condition, vitamin B12 added, 14 days) was “hardly induced” and the “induction of nerve cells (nerve cell inducing ratio)” value (ES cell EB5 [1]; heparin 0.01% addition condition, vitamin B12 concentration varied, 14 days) was “nerve cells are induced”.

In the case of heparin, the “number of total colonies” value (ES cell EB5 [2]) is reported as “difference in the number of total colonies was not found” and the “induction of nerve cells (number of nerve cell colonies)” value (ES cell EB5 [1]; vitamin B12 not added, heparin concentration varied, 14 days, FIG. 3) is reported as “hardly induced”.

`NCCCCN` [putrescine] was tested, and the “activity to induce differentiation of embryonic stem cells into nerve cells by the combination of heparin and vitamin B12” value (ES cell EB5 [1]) was “reinforced”.

In the case of `O=C(O)CCCC[C@@H]1SC[C@@H]2NC(=O)N[C@@H]21` [biotin, (+)-biotin], the “activity to induce differentiation of embryonic stem cells into nerve cells by the combination of heparin and vitamin B12” value (ES cell EB5 [1]) is reported as “reinforced”.
